Test results reported in ChEMBL document CHEMBL2074082, “Characterization of the monocarboxylate transporter 1 expressed in Xenopus laevis oocytes by changes in cytosolic pH” (Biochem J, 1998).

How the values were obtained:
[1] = target: T1, Monocarboxylate transporter 1 (Rattus norvegicus) (UniProt P53987); test: TP_TRANSPORTER: inhibition of lactate uptake(pHi charge) in Xenopus laevis oocytes; assay type: functional, cell-based; details: Oocyte
T1 sequence (whole entry): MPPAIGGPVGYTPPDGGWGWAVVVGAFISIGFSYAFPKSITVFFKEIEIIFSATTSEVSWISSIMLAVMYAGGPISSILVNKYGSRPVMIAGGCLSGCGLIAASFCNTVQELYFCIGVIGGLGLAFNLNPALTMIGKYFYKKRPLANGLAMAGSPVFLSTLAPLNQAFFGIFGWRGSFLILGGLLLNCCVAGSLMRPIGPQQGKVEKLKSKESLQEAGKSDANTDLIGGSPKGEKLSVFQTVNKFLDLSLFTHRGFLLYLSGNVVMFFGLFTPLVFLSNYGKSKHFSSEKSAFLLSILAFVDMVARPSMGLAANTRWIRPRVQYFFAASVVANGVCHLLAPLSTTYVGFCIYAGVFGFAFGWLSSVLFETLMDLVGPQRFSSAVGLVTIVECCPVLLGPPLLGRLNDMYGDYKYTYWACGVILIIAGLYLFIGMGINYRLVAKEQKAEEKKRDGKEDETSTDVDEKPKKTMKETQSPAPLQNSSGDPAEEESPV

[2] = target: T1, Monocarboxylate transporter 1 (Rattus norvegicus); test: TP_TRANSPORTER: change in intracellular pH(pHi)value in Xenopus laevis oocytes; assay type: functional, cell-based; details: Oocyte

Row | Compound | Activity [1] | Activity [2]
1 | N#C/C(=C\c1ccc(O)cc1)C(=O)O | inhibitor [+] | 
2 | CC(O)CC(=O)O (racemic) |  | substrate [+]
3 | CC(=O)CC(=O)O |  | substrate [+]
